ChEMBL document CHEMBL1201862, “PubChem BioAssay data set” (2004)
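Test compounds were applied to cells in 96-well plates for 48 hours at 5 doses. GI50 = concentration required for 50% inhibition of growth.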 The source made the active and inactive calls. No stated cut-off is given here; in the data, active = GI50 up to about 1.1 µM and inactive = higher.

Legend:
Assay in all cases: inhibition of tumour cell growth, NCI panel, 48 h
786-0 = tested on: 786-0
A498 = tested on: A498
A549 = tested on: A549
ACHN = tested on: ACHN
BT-549 = tested on: BT-549
CAKI-1 = tested on: CAKI-1
CCRF-CEM = tested on: CCRF-CEM
COLO 205 = tested on: COLO 205
DU-145 = tested on: DU-145
EKVX = tested on: EKVX
HCC 2998 = tested on: HCC 2998
HCT-116 = tested on: HCT-116
HCT-15 = tested on: HCT-15
HL-60 = tested on: HL-60
HOP-62 = tested on: HOP-62
HOP-92 = tested on: HOP-92
HT-29 = tested on: HT-29
Hs-578T = tested on: Hs-578T
IGROV-1 = tested on: IGROV-1
K562 = tested on: K562
KM12 = tested on: KM12
LOX IMVI = tested on: LOX IMVI
M14 = tested on: M14
MCF7 = tested on: MCF7
MDA-MB-231 = tested on: MDA-MB-231
MDA-MB-435 = tested on: MDA-MB-435
MDA-N = tested on: MDA-N
MOLT-4 = tested on: MOLT-4
Malme-3M = tested on: Malme-3M
NCI-H23 = tested on: NCI-H23
NCI-H460 = tested on: NCI-H460
NCI-H522 = tested on: NCI-H522
NCI/ADR-RES = tested on: NCI/ADR-RES
OVCAR-3 = tested on: OVCAR-3
OVCAR-4 = tested on: OVCAR-4
OVCAR-5 = tested on: OVCAR-5
OVCAR-8 = tested on: OVCAR-8
PC-3 = tested on: PC-3
RPMI-8226 = tested on: RPMI-8226
RXF 393 = tested on: RXF 393
SF-268 = tested on: SF-268
SF-295 = tested on: SF-295
SF-539 = tested on: SF-539
SK-MEL-28 = tested on: SK-MEL-28
SK-MEL-2 = tested on: SK-MEL-2
SK-MEL-5 = tested on: SK-MEL-5
SK-OV-3 = tested on: SK-OV-3
SN12C = tested on: SN12C
SNB-19 = tested on: SNB-19
SNB-75 = tested on: SNB-75
SW-620 = tested on: SW-620
T47D = tested on: T47D
TK-10 = tested on: TK-10
U-251 = tested on: U-251
UACC-257 = tested on: UACC-257
UACC-62 = tested on: UACC-62
UO-31 = tested on: UO-31
NCI-H226 = tested on: NCI-H226
SR = tested on: SR

CC[N+]1(C)CCC(O)(/C=C/c2ccc(Cl)cc2)C(C(=O)/C=C/c2ccc(Cl)cc2)C1 (stereo unspecified)
GI50 (786-0): 3.01 µM (inactive) | GI50 (A498): 16.4 µM (inactive) | GI50 (A549): 13.9 µM (inactive) | GI50 (ACHN): 3.6 µM (inactive) | GI50 (BT-549): 13.8 µM (inactive) | GI50 (CAKI-1): 1.9 µM (inactive) | GI50 (CCRF-CEM): 1.08 µM (active) | GI50 (COLO 205): 3.55 µM (inactive) | GI50 (DU-145): 12.1 µM (inactive) | GI50 (EKVX): 18.8 µM (inactive) | GI50 (HCC 2998): 17.5 µM (inactive) | GI50 (HCT-116): 3.48 µM (inactive) | GI50 (HCT-15): 4.56 µM | GI50 (HL-60): 1.6 µM (inactive) | GI50 (HOP-62): 14.8 µM (inactive) | GI50 (HOP-92): 3.23 µM (inactive) | GI50 (HT-29): 3.08 µM (inactive) | GI50 (Hs-578T): 3.08 µM (inactive) | GI50 (IGROV-1): 4.7 µM (inactive) | GI50 (K562): 2.37 µM (inactive) | GI50 (KM12): 2.9 µM (inactive) | GI50 (LOX IMVI): 2.71 µM (inactive) | GI50 (M14): > 19.9 µM (inactive) | GI50 (MCF7): 3.92 µM (inactive) | GI50 (MDA-MB-231): 4.81 µM (inactive) | GI50 (MDA-MB-435): 3.85 µM (inactive) | GI50 (MDA-N): 3.45 µM (inactive) | GI50 (MOLT-4): 2.5 µM (inactive) | GI50 (Malme-3M): 6.62 µM (inactive) | GI50 (NCI-H23): 9.89 µM (inactive) | GI50 (NCI-H460): 4.48 µM (inactive) | GI50 (NCI-H522): 2.88 µM (inactive) | GI50 (NCI/ADR-RES): 9.64 µM (inactive) | GI50 (OVCAR-3): 11.5 µM (inactive) | GI50 (OVCAR-4): 28.4 µM (inactive) | GI50 (OVCAR-5): 17.3 µM (inactive) | GI50 (OVCAR-8): 4.59 µM (inactive) | GI50 (PC-3): 10.7 µM (inactive) | GI50 (RPMI-8226): 0.327 µM (active) | GI50 (RXF 393): 7.66 µM (inactive) | GI50 (SF-268): 4.55 µM (inactive) | GI50 (SF-295): 16.2 µM (inactive) | GI50 (SF-539): 2.35 µM (inactive) | GI50 (SK-MEL-28): 6.17 µM (inactive) | GI50 (SK-MEL-2): 15.8 µM (inactive) | GI50 (SK-MEL-5): 10.5 µM (inactive) | GI50 (SK-OV-3): 18 µM (inactive) | GI50 (SN12C): 7.11 µM (inactive) | GI50 (SNB-19): 4.46 µM (inactive) | GI50 (SNB-75): 11.3 µM (inactive) | GI50 (SW-620): 2.56 µM (inactive) | GI50 (T47D): 4.86 µM (inactive) | GI50 (TK-10): 3.51 µM (inactive) | GI50 (U-251): 3.81 µM (inactive) | GI50 (UACC-257): 14.5 µM (inactive) | GI50 (UACC-62): 13.8 µM (inactive) | GI50 (UO-31): 6.58 µM (inactive)

COc1ccc(C2=C(Cl)c3cc(OC)c(OC)cc3C2=O)cc1OC
GI50 (786-0): 3.43 µM (inactive) | GI50 (A498): 18.1 µM (inactive) | GI50 (A549): 36.9 µM (inactive) | GI50 (ACHN): 5.57 µM (inactive) | GI50 (BT-549): 16.1 µM (inactive) | GI50 (CAKI-1): 2.28 µM (inactive) | GI50 (CCRF-CEM): 3.93 µM (inactive) | GI50 (COLO 205): 3.16 µM (inactive) | GI50 (DU-145): 18.7 µM (inactive) | GI50 (EKVX): 20.1 µM (inactive) | GI50 (HCC 2998): 22.6 µM (inactive) | GI50 (HCT-116): 4.22 µM (inactive) | GI50 (HCT-15): 6.9 µM | GI50 (HL-60): 1.8 µM (inactive) | GI50 (HOP-62): 15.3 µM (inactive) | GI50 (HOP-92): 1.8 µM (inactive) | GI50 (HT-29): 5.38 µM (inactive) | GI50 (Hs-578T): 30 µM (inactive) | GI50 (IGROV-1): 17.5 µM (inactive) | GI50 (KM12): 17.4 µM (inactive) | GI50 (LOX IMVI): 12 µM (inactive) | GI50 (M14): 4.84 µM (inactive) | GI50 (MCF7): 13.1 µM (inactive) | GI50 (MDA-MB-231): 16.4 µM (inactive) | GI50 (MDA-MB-435): 15.9 µM (inactive) | GI50 (MDA-N): 18.5 µM (inactive) | GI50 (MOLT-4): 3.63 µM (inactive) | GI50 (Malme-3M): 13.2 µM (inactive) | GI50 (NCI-H226): 38.7 µM (inactive) | GI50 (NCI-H23): 12 µM (inactive) | GI50 (NCI-H522): 12.6 µM (inactive) | GI50 (NCI/ADR-RES): 21.9 µM (inactive) | GI50 (OVCAR-3): 1.77 µM (inactive) | GI50 (OVCAR-4): 12.1 µM (inactive) | GI50 (OVCAR-5): 19.8 µM (inactive) | GI50 (OVCAR-8): 16.9 µM (inactive) | GI50 (RPMI-8226): 18.1 µM (inactive) | GI50 (RXF 393): 5.7 µM (inactive) | GI50 (SF-268): 18.9 µM (inactive) | GI50 (SF-295): > 100 µM (inactive) | GI50 (SF-539): 21.3 µM (inactive) | GI50 (SK-MEL-2): 14.4 µM (inactive) | GI50 (SK-MEL-5): 15.9 µM (inactive) | GI50 (SK-OV-3): 21 µM (inactive) | GI50 (SN12C): 18 µM (inactive) | GI50 (SNB-19): > 100 µM (inactive) | GI50 (SNB-75): 61 µM (inactive) | GI50 (SR): 6.11 µM (inactive) | GI50 (SW-620): 12.7 µM (inactive) | GI50 (T47D): 2.95 µM (inactive) | GI50 (TK-10): 13 µM (inactive) | GI50 (UACC-257): 4.28 µM (inactive) | GI50 (UACC-62): 15.4 µM (inactive) | GI50 (UO-31): 16.6 µM (inactive)
